Measured values: patent US6700013B2, “Tricyclic fused heterocycle compounds, process for preparing the same and use thereof” (Nippon Suisan Kaisha, Ltd., priority 1999, dated 2004)

Tested on: pig tracheal smooth muscles
Assay: Dilating action on contraction of tracheal smooth muscles (high K+ contraction, Magnus tube)
Details: Sus scrofa, 2 h; K+ contraction (72.7 mM); test substance final concentration 10 μM; two hours after addition; tension before addition = 100%; read-out: Relative Contraction Force (%)
Description: With the use of pig tracheal muscles, the action of the compounds of the present invention on contraction of tracheal muscles has been investigated. The method refers to “Smooth Muscle Manual” (published by Bun'eido Publishing Co.), pp. 125-137. The trachea cartilage mucous membrane and submucous tissue of a pig trachea were removed to prepare a specimen of tracheal smooth muscles having a major diameter of about 10 mm and a minor diameter of about 1.5 mm. This specimen was suspended in a Magnus tube which was aerated with a mixed gas of 95% of oxygen and 5% of carbon dioxide and contained nutrient solution at 37° C. and a load of 0.8 g was applied to this specimen, and after the tension of the specimen was stabilized, the nutrient solution was replaced with a high concentration K^+ solution (72.7 mM) to provoke K^+ contraction. The procedure of replacing the solution in the Magnus tube with the nutrient solution to wash the solution and provoking K^+ contraction with the high concentration K^+ solution was repeated again until the contraction force became constant. When the tension of the K^+ contraction became constant, each of the compounds described in Table 19 (the structural formula of the Comparative Example being described in the right side of the compound of the above described Example 180) was added to the high concentration K^+ solution as the test substance to measure the change in tension. The test substance was dissolved in dimethyl sulfoxide at a predetermined concentration and added to the high concentration K^+ solution in such a manner that the final concentration came to 10 μM. The trachea cartilage mucous membrane and submucous tissue of a pig trachea were removed to prepare a specimen of tracheal smooth muscles having a major diameter of about 10 mm and a minor diameter of about 1.5 mm. This specimen was suspended in a Magnus tube which was aerated with a mixed gas of 95% of oxygen and 5% of carbon dioxide and contained nutrient solution at 37° C. and a load of 0.8 g was applied to this specimen, and after the tension of the specimen was stabilized, the nutrient solution was replaced with a high concentration K+ solution (72.7 mM) to provoke K+ contraction. The procedure of replacing the solution in the Magnus tube with the nutrient solution to wash the solution and provoking K+ contraction with the high concentration K+ solution was repeated again until the contraction force became constant. When the tension of the K+ contraction became constant, each of the compounds described in Table 19 (the structural formula of the Comparative Example being described in the right side of the compound of the above described Example 180) was added to the high concentration K+ solution as the test substance to measure the change in tension. The test substance was dissolved in dimethyl sulfoxide at a predetermined concentration and added to the high concentration K+ solution in such a manner that the final concentration came to […]. Further, the final concentration of dimethyl sulfoxide added was made 0.3% or less. The change in tension was led to a strain pressure amplifier (“AP-621G3”, manufactured by Nippon Koden Kogyo) through a FD pickup transducer (“TB-611T”, manufactured by Nippon Koden Kogyo) and recorded on a recorder (“R-64V”, manufactured by Rika Electric). When the tension before replacement with the high concentration K+ solution was regarded as 0% and the last tension which was generated by the high concentration K+ solution before the addition of a test substance was regarded as 100%, the contraction force of the tracheal smooth muscle two hours after addition of a test substance was shown as relative percentage. […]

In order of falling activity at 10 µM:
1. Oc1cc(O)c2c(c1)Sc1ccccc1CC2 [Comparative Example, reference compound]  54.5%
2. Oc1cc(O)c2c(c1)Sc1cc(-c3ccco3)ccc1CC2 [Example 124]  30.3%
3. O=C1Cc2ccc(-c3ccco3)cc2Sc2cc(O)cc(O)c21 [Example 82]  22.4%
4. Oc1cc(O)c2c(c1)Oc1cc(-c3cccs3)ccc1CC2 [Example 110]  10.9%
5. CC1C(=O)c2cc(O)c(O)cc2Sc2ccccc21 (centres unmarked) [Example 37]  7.5%
6. Oc1cc(O)c2c(c1)Sc1cccc(Cl)c1CC2 [Example 27]  1.4%
7. O=C1Cc2c(Cl)cccc2Sc2cc(O)cc(O)c21 [Example 17]  0%

Tested on: not given
Assay: not given
Details: not given

First: Oc1cc(O)c2c(c1)Sc1cc(-c3ccco3)ccc1CC2 [Example 124]
Second: O=C1Cc2ccc(-c3ccco3)cc2Sc2cc(O)cc(O)c21 [Example 82]
The melting point of the first is lower: 148.5 to 149.6 °C for the first, 234.9 to 238.8 °C for the second.

Compared with `Oc1cc(O)c2c(c1)Sc1cccc(Cl)c1CC2` [Example 27], `N#Cc1ccc2c(c1)CCc1c(O)cc(O)cc1S2` [Example 29] is higher in melting point: 127.3 to 130.7 °C for the first, 237.4 to 238.6 °C for the second.

First: Oc1cc(O)c2c(c1)Oc1cc(-c3cccs3)ccc1CC2 [Example 110]
Second: Oc1cc(O)c2c(c1)Oc1cc(-c3ccccc3)ccc1CC2 [Example 7, 7-Phenyl-10,11-dihydrodibenz[b,f]oxepin-1,3-diol]
The melting point of the first is higher: 194.2 to 195.6 °C for the first, 179.6 to 180.4 °C for the second.

First: Oc1cc(O)c2c(c1)Oc1cc(-c3cccc(Cl)c3)ccc1CC2 [Example 118]
Second: O=C1Cc2ccc(-c3cccc(Cl)c3)cc2Oc2cc(O)cc(O)c21 [Example 69]
The melting point of the first is lower: 137.1 to 143.2 °C for the first, 199.9 to 201.4 °C for the second.

Compared with `CSc1ccc2c(c1)C=Cc1c(O)cc(O)cc1S2` [Example 28], `CCC1C(=O)c2c(O)cc(O)cc2Sc2ccc(SC)cc21` (centres unmarked) [Example 35] is lower in melting point: 182.9 to 184.4 °C for the first, 167.4 to 168.2 °C for the second.

First: Oc1cc(O)c2c(c1)Sc1ccc(-c3cccs3)cc1CC2 [Example 126]
Second: O=C1Cc2cc(-c3cccs3)ccc2Oc2cc(O)cc(O)c21 [Example 58]
The melting point of the first is higher: 207.3 to 208.1 °C for the first, 199.9 to 201 °C for the second.

Compared with `O=C1Cc2ccc(-c3cc4ccccc4o3)cc2Sc2cc(O)cc(O)c21` [Example 92], `Cc1ccccc1-c1ccc2c(c1)Sc1cc(O)cc(O)c1C(=O)C2` [Example 89] is lower in melting point: 251.6 to 253.8 °C for the first, 178.1 to 198.3 °C for the second.

`CCC1C(=O)c2cc(O)c(O)cc2Sc2ccc(-c3cccs3)cc21` (centres unmarked) [Example 162] and `CCC1C(=O)c2cc(O)c(O)cc2Sc2ccc(-c3ccccc3)cc21` (centres unmarked) [Example 163] cannot be ordered by melting point: 225.7 to 227.4 °C for the first, 225.7 to 227.3 °C for the second.

First: Nc1cccc(-c2ccc3c(c2)CCc2c(O)cc(O)cc2O3)c1 [Example 119]
Second: Oc1cc(O)c2c(c1)Oc1ccc(-c3ccccc3)cc1CC2 [Example 109]
The melting point of the first is higher: 197.2 to 199.3 °C for the first, 176.7 to 179.2 °C for the second.

First: CCC1C(=O)c2cc(O)c(O)cc2Sc2cc(SC)ccc21 (centres unmarked) [Example 46]
Second: CCC1C(=O)c2cc(O)c(O)cc2Sc2ccc(SC)cc21 (centres unmarked) [Example 36]
The melting point of the first is lower: 179.8 to 183 °C for the first, 199.6 to 200.5 °C for the second.

First: CCC1(CC)C(=O)c2cc(O)c(O)cc2Sc2ccccc21 [Example 3]
Second: CCC1C(=O)c2cc(O)c(O)cc2Sc2cc(Br)ccc21 (centres unmarked) [Example 45]
The melting point of the first is higher: 238 to 244.1 °C for the first, 227.2 to 229.9 °C for the second.

First: CCC1C(=O)c2cc(O)c(O)cc2Sc2cc(-c3cccc([N+](=O)[O-])c3)ccc21 (centres unmarked) [Example 175]
Second: CCC1C(=O)c2cc(O)c(O)cc2Sc2cc(-c3cccc(Cl)c3)ccc21 (centres unmarked) [Example 157]
The melting point of the first is higher: 221.8 to 225 °C for the first, 175.5 to 176.8 °C for the second.

Compared with `O=C1Cc2ccc(-c3ccc(-c4ccccc4)cc3)cc2Oc2cc(O)cc(O)c21` [Example 96], `O=C1Cc2ccc(-c3ccc(OC(F)(F)F)cc3)cc2Oc2cc(O)cc(O)c21` [Example 97] is lower in melting point: 261.6 to 263.2 °C for the first, 197.7 to 200.8 °C for the second.

First: O=CNc1cccc(-c2ccc3c(c2)CC(=O)c2c(O)cc(O)cc2O3)c1 [Example 75]
Second: O=C1Cc2cc(-c3cccnc3)ccc2Oc2cc(O)cc(O)c21 [Example 55]
The melting point of the first is lower: 241 to 247.08 °C for the first, 293.9 to 300.1 °C for the second.

Compared with `CCCc1ccc2c(c1)CC(=O)c1c(O)cc(O)cc1O2` [Example 47], `O=C1Cc2cc(-c3ccco3)ccc2Oc2cc(O)cc(O)c21` [Example 57] is higher in melting point: 121 to 123 °C for the first, 171 to 172.7 °C for the second.

Compared with `Oc1cc(O)c2c(c1)Oc1ccc(CCc3ccccc3)cc1CC2` [Example 113], `Oc1cc(O)c2c(c1)Oc1ccc(-c3ccco3)cc1CC2` [Example 114] is higher in melting point: 151.8 to 152.7 °C for the first, 163.6 to 173.9 °C for the second.

First: O=C1Cc2ccc(-c3ccco3)cc2Oc2cc(O)cc(O)c21 [Example 70]
Second: O=C1Cc2ccc(-c3ccc(O)c(O)c3)cc2Oc2cc(O)cc(O)c21 [Example 98]
The melting point of the first is higher: 249.6 to 250.8 °C for the first, 229.8 to 231.6 °C for the second.

First: Cc1ccccc1-c1ccc2c(c1)CC(=O)c1c(O)cc(O)cc1O2 [Example 62]
Second: O=C1Cc2ccc(C#Cc3ccccc3)cc2Oc2cc(O)cc(O)c21 [Example 101]
The melting point of the first is lower: 91.8 to 94.8 °C for the first, 189.4 to 191.1 °C for the second.

Compared with `O=C1Cc2ccc(-c3cccc(C(F)(F)F)c3)cc2Sc2cc(O)cc(O)c21` [Example 91], `CCc1ccc2c(c1)CC(=O)c1c(O)cc(O)cc1S2` [Example 48] is lower in melting point: 225.3 to 226.5 °C for the first, 179.1 to 180.1 °C for the second.

First: CCCC(=O)c1ccc2c(c1)CCc1c(O)cc(O)cc1S2 [Example 129]
Second: COc1cc(O)c2c(c1)Sc1ccc(Br)cc1CC2=O [Example 14]
The melting point of the first is lower: 151.8 to 152.8 °C for the first, 187.5 °C for the second.

First: CC1C(=O)c2c(O)cc(O)cc2Sc2ccccc21 (centres unmarked) [Example 39]
Second: CCC1C(=O)c2cc(O)c(O)cc2Sc2cc(-c3ccccc3)ccc21 (centres unmarked) [Example 154]
The melting point of the first is lower: 152.1 to 153.4 °C for the first, 274.3 to 276.1 °C for the second.

For `O=C(Cc1ccc2c(c1)Oc1cc(O)cc(O)c1C(=O)C2)C1=CCCCC1` [Example 68], the melting point was 195.5 to 195.8 °C.

In the case of `O=C1Cc2c(Cl)cccc2Sc2cc(O)cc(O)c21` [Example 17], the melting point is reported as > 200 °C (dec.).
With `O=C1Cc2ccc(Br)cc2Sc2cc(O)cc(O)c21` [Example 9, 3-Bromo-7,9-dihydroxy-10,11-dihydrodibenzo[b,f]thiepin-10-one] the melting point was > 200 °C (dec.).
With `CCC1C(=O)c2cc(O)c(O)cc2Sc2cc(-c3ccc(-c4ccccc4)cc3)ccc21` (centres unmarked) [Example 171] the melting point was greater than 300 °C.
Work on `O=C1Cc2ccc(Br)cc2Sc2cc(O)c(O)cc21` [Example 20] yielded a melting point greater than 250 °C.
For `Nc1cccc(-c2ccc3c(c2)CC(=O)c2c(O)cc(O)cc2O3)c1` [Example 59], the melting point was > 300 °C (dec.).

Tested on: Sprague-Dawley line rats
Assay: Toxicity study of two-week repeated-dose oral administration with rats
Format: in vivo
Details: male, oral, 0, 125 and 500 mg/kg/day repeatedly for two weeks
Description: In order to study the toxicity by repeated-dose administration of compounds, the compounds were dosed orally to Sprague-Dawley line rats (three male rats per group) with 0, 125 and 500 mg/kg/day (a 0.5 w/v % CMC-Na solution) repeatedly for two weeks.

With `Oc1cc(O)c2c(c1)Sc1ccccc1CC2` [Comparative Example, reference compound] the “Results (toxicity findings)” value was “Kidney damage were observed with”.
